Series [1] in a line: Fraction unbound in Wistar Han rat plasma at 2 uM incubated for 6 hrs by equilibrium dialysis method. In general terms: Equilibrium dialysis compares concentrations on both sides of a semipermeable membrane.
The nature of series [2]: Fraction unbound in Wistar Han rat white adipose tissue at 2 uM incubated for 6 hrs by equilibrium dialysis method.
Series [3] is described as follows: Fraction unbound in Wistar Han rat brain at 2 uM incubated for 6 hrs by equilibrium dialysis method.
Series [4] is described as follows: Fraction unbound in Wistar Han rat heart at 2 uM incubated for 6 hrs by equilibrium dialysis method.
Series [5] can be described thus: Fraction unbound in Wistar Han rat liver at 2 uM incubated for 6 hrs by equilibrium dialysis method.
A short description of series [6]: Fraction unbound in Wistar Han rat skeletal muscle at 2 uM incubated for 6 hrs by equilibrium dialysis method.
Series [7] can be described thus: Total plasma concentration in Wistar Han rat at 1 to 2 mg/kg, iv infused for 10 to 20 hrs by LC-MS/MS analysis. Conditions: in vivo.
Series [8] in a line: Drug concentration in total white adipose tissue in Wistar Han rat at 1 to 2 mg/kg, iv infused for 10 to 20 hrs by LC-MS/MS analysis. The settings on record: in vivo.
A short description of series [9]: Drug concentration in total brain in Wistar Han rat at 1 to 2 mg/kg, iv infused for 10 to 20 hrs by LC-MS/MS analysis. Conditions: in vivo.
A short description of series [10]: Drug concentration in total heart in Wistar Han rat at 1 to 2 mg/kg, iv infused for 10 to 20 hrs by LC-MS/MS analysis. The settings on record: in vivo.
Series [11] is described as follows: Drug concentration in total liver in Wistar Han rat at 1 to 2 mg/kg, iv infused for 10 to 20 hrs by LC-MS/MS analysis. The settings on record: in vivo.
The nature of series [12]: Drug concentration in total skeletal muscle in Wistar Han rat at 1 to 2 mg/kg, iv infused for 10 to 20 hrs by LC-MS/MS analysis. Conditions: in vivo.
The nature of series [13]: Unbound tissue partition coefficient, ratio of drug level in heart to plasma in Wistar Han rat at 1 to 2 mg/kg, iv infused for 10 to 20 hrs by LC-MS/MS analysis. Conditions: heart/plasma.
Series [14] is described as follows: Unbound tissue partition coefficient, ratio of drug level in brain to plasma in Wistar Han rat at 1 to 2 mg/kg, iv infused for 10 to 20 hrs by LC-MS/MS analysis. The settings on record: brain/plasma.
Series [15] is described as follows: Unbound tissue partition coefficient, ratio of drug level in adipose to plasma in Wistar Han rat at 1 to 2 mg/kg, iv infused for 10 to 20 hrs by LC-MS/MS analysis. Conditions: adipose/plasma.
Series [16] can be described thus: Unbound tissue partition coefficient, ratio of drug level in liver to plasma in Wistar Han rat at 1 to 2 mg/kg, iv infused for 10 to 20 hrs by LC-MS/MS analysis. Conditions: liver/plasma.
The nature of series [17]: Unbound tissue partition coefficient, ratio of drug level in skeletal muscle to plasma in Wistar Han rat at 1 to 2 mg/kg, iv infused for 10 to 20 hrs by LC-MS/MS analysis. The settings on record: skeletal muscle/plasma.
The nature of series [18]: Apparent permeability of the compound across dog RRCK cells by MDCK-LE assay.

For the compound `CO[C@@H]1C[C@H](C(=O)Nc2ccc(-n3cc(Cl)ccc3=O)cc2F)N(C(=O)Nc2ccc(Cl)cc2)C1`, the fraction unbound – broadly, free concentration divided by total concentration – at 6 h, 2 µM in series [1] was determined as 0.0543; in series [2] it was 0.177; in series [3], 0.0391; in [4], 0.0772; in series [5], 0.0949; in series [6], 0.0842. This compound also yielded a Cp in series [7] of 120 ng/mL. Besides, the Ct in [8] worked out at 300 ng/mL; in [9], 10 ng/mL; in [10], 960 ng/mL; in [11] it was 600 ng/mL; in series [12] it was 180 ng/mL. In addition, the Kp uu in [13] came out at 11; in series [14] it was 0.064; in [15], 7.9; in series [16], 8.6; in series [17], 2.4. In series [18], the Papp – broadly, the rate of passage across a membrane or cell layer, normalised by area and donor concentration – is 21 ×10⁻⁶ cm/s.
As to `O=C(NC1CCCC1)C1CCN(c2nc3cc(Cl)ccc3o2)CC1`, the unbound share (fraction unbound) at 6 h, 2 µM in series [1] is 0.00646; in series [2] it was 0.0248; in series [3] it was 0.0144; in series [4] it was 0.0292; in [5], 0.0414; in series [6] it was 0.02. For the same compound, the Cp in series [7] amounted to 310 ng/mL. Besides, the Ct in series [8] came to 330 ng/mL; in series [9], 88 ng/mL; in series [10] it was 150 ng/mL; in series [11], 210 ng/mL; in series [12], 59 ng/mL. The Kp uu in series [13] came to 2.2; in series [14], 0.64; in series [15], 3.9; in series [16], 4.3; in series [17], 0.61. The apparent permeability (Papp) in series [18] stood at 35 ×10⁻⁶ cm/s.
With `NC(=O)c1c(-c2ccc(Oc3ccc(Cl)cc3)cc2)nn([C@@H]2CCCN(C(=O)/C=C/CO)C2)c1N`, the fraction unbound at 6 h, 2 µM in series [1] is 0.0219; in series [2], 0.113; in [3], 0.00529; in series [4], 0.013; in series [5] it was 0.0115; in [6], 0.0154. Further, in series [7], the Cp worked out at 55 ng/mL. The Ct in [8] turned out to be 21 ng/mL; in series [9] it was 2.4 ng/mL; in series [10] it was 240 ng/mL; in series [11], 470 ng/mL; in series [12], 97 ng/mL. Further, the Kp uu was 2.7 in [13]; 0.011 in [14]; 2 in series [15]; 4.5 in series [16]; 1.3 in series [17]. For the same compound, the Papp in series [18] turned out to be 5.5 ×10⁻⁶ cm/s.
For `CS(=O)(=O)c1cccc(C(=O)O)c1`, the fraction unbound at 6 h, 2 µM in series [1] was found to be 0.373; in series [2] it was 0.516; in [3], 1; in series [4] it was 0.422; in series [5], 0.628; in [6], 0.865. Further, the Cp in [7] came to 130 ng/mL. Moreover, the Ct is 0.77 ng/mL in [8]; 1 ng/mL in [9]; 40 ng/mL in [10]; 190 ng/mL in series [11]; 14 ng/mL in [12]. Moreover, the Kp uu in series [13] stood at 0.39; in series [14] it was 0.02; in series [15], 0.024; in series [16], 2.4; in series [17] it was 0.27. The apparent permeability (Papp) in [18] came out at 12 ×10⁻⁶ cm/s.
Turning to `CCC[C@H](Oc1cc(C)c(-n2cc(C(F)(F)F)cn2)c(C)c1)c1ccc(C(=O)NCCC(=O)O)cc1` [PF-06291874], the unbound share (fraction unbound) at 6 h, 2 µM in series [1] turned out to be 0.00392; in series [2] it was 0.0593; in [3], 0.00714; in series [4], 0.00722; in series [5] it was 0.00845; in [6], 0.00926. Moreover, in [7], the Cp was 410 ng/mL. The Ct in [8] turned out to be 18 ng/mL; in [9], 5.8 ng/mL; in series [10] it was 200 ng/mL; in series [11], 2400 ng/mL; in series [12], 58 ng/mL. The Kp uu turned out to be 0.91 in series [13]; 0.026 in series [14]; 0.69 in series [15]; 13 in series [16]; 0.33 in series [17]. In addition, the Papp in series [18] turned out to be 8.5 ×10⁻⁶ cm/s.
As for `Cc1nc2cc(-c3cc(F)cc(C#N)c3)ccc2s1`, the free fraction (fraction unbound) at 6 h, 2 µM is 0.00655 in series [1]; 0.000864 in series [2]; 0.00394 in [3]; 0.0101 in series [4]; 0.00815 in series [5]; 0.0047 in series [6]. Also, the Cp in series [7] was found to be 31 ng/mL. Moreover, the Ct in series [8] is 570 ng/mL; in series [9] it was 73 ng/mL; in [10], 66 ng/mL; in [11] it was 480 ng/mL; in series [12], 25 ng/mL. Further, the Kp uu in series [13] turned out to be 3.3; in [14], 1.5; in series [15], 2.6; in series [16], 20; in [17] it was 0.6. Moreover, the apparent permeability (Papp) in [18] came out at 34 ×10⁻⁶ cm/s.
As to `O=C(NC1CC1)c1nc2cccnn2c1-c1ccc2ncnn2c1`, the fraction unbound at 6 h, 2 µM in series [1] came to 0.511; in [2] it was 0.709; in [3], 0.886; in series [4], 0.746; in series [5], 0.439; in [6] it was 0.304. Besides, in series [7], the Cp worked out at 50 ng/mL. The Ct was 29 ng/mL in series [8]; 68 ng/mL in series [9]; 140 ng/mL in [10]; 210 ng/mL in series [11]; 100 ng/mL in [12]. The Kp uu in series [13] turned out to be 4; in series [14], 2.5; in series [15], 0.95; in series [16], 3.9; in series [17], 1.3. Besides, the apparent permeability (Papp) in series [18] is 27 ×10⁻⁶ cm/s.
With `O=C(O)[C@@H]1CCCN(C(=O)n2cnc(-c3ccc(-c4cnc(N5CCOCC5)nc4)cc3)n2)[C@H]1c1ccccc1`, the fraction unbound at 6 h, 2 µM in [1] was 0.00273; in series [2] it was 0.089; in [3] it was 0.00251; in series [4] it was 0.00542; in series [5], 0.00643; in series [6], 0.00554. Further, the Cp in [7] turned out to be 120 ng/mL. Besides, the Ct in series [8] came to 8 ng/mL; in series [9], 1.5 ng/mL; in series [10] it was 59 ng/mL; in [11], 860 ng/mL; in [12], 18 ng/mL. In addition, the Kp uu worked out at 1.1 in series [13]; 0.0089 in [14]; 2.5 in [15]; 18 in series [16]; 0.3 in [17]. Besides, the Papp in series [18] came out at 7.9 ×10⁻⁶ cm/s.
Turning to `COc1cc2c(OC[C@H]3NC(=O)[C@@H]4C[C@]34C)nccc2cc1C(N)=O`, the free fraction (fraction unbound) at 6 h, 2 µM worked out at 0.298 in [1]; 0.803 in series [2]; 0.294 in [3]; 0.399 in series [4]; 0.368 in series [5]; 0.403 in series [6]. In series [7], the Cp worked out at 110 ng/mL. For the same compound, the Ct turned out to be 16 ng/mL in [8]; 3.7 ng/mL in [9]; 100 ng/mL in series [10]; 1000 ng/mL in series [11]; 67 ng/mL in [12]. The Kp uu in [13] is 1.2; in series [14], 0.032; in [15], 0.38; in series [16], 11; in [17], 0.8. Further, the Papp in [18] was found to be 19 ×10⁻⁶ cm/s.
On to `COc1ccc(-c2cc3c(C(=O)O)n[nH]c3cc2Cl)cc1`, for which the unbound share (fraction unbound) at 6 h, 2 µM amounted to 0.00439 in [1]; 0.334 in series [2]; 0.0135 in series [3]; 0.0256 in [4]; 0.0193 in [5]; 0.0398 in series [6]. The compound further registered a Cp in series [7] of 96 ng/mL. Also, the Ct in [8] was determined as 1 ng/mL; in series [9] it was 0.6 ng/mL; in [10], 29 ng/mL; in [11], 140 ng/mL; in [12] it was 1.9 ng/mL. Besides, the Kp uu in [13] was determined as 1.8; in [14] it was 0.017; in series [15], 1.2; in [16] it was 6.5; in series [17], 0.15. Besides, the apparent permeability coefficient (Papp) in series [18] was 8.8 ×10⁻⁶ cm/s.

The values above are taken from ChEMBL document CHEMBL4373746, “Structural attributes influencing unbound tissue distribution” (Eur J Med Chem, 2020).
